Experimental findings from patent publication US20230203041A1, “ANTAGONISTS OF THE ADENOSINE A2A RECEPTOR” (AdoRx Therapeutics Limited, priority 2020, published 2023) are described below.

Where only a bound is given, the exact number is not on record here.

Assay [1] has as its target T1, human Adenosine A2a receptor (Homo sapiens, UniProt P29274).
T1 construct: expressed in transfected cells; host or cells: CHO cell membranes
The assay is described as follows: Adenosine receptor TR-FRET binding assay (CA200645 displacement), A2a. As to conditions: 100 nM CA200645, CHO cell membranes, 2 hours at room temperature.

Assay [2] concerns the target T2, human Adenosine A2b receptor (Homo sapiens, UniProt P29275).
T2 construct: expressed in transfected cells; host or cells: CHO cell membranes
T2 sequence (P29275 1-332): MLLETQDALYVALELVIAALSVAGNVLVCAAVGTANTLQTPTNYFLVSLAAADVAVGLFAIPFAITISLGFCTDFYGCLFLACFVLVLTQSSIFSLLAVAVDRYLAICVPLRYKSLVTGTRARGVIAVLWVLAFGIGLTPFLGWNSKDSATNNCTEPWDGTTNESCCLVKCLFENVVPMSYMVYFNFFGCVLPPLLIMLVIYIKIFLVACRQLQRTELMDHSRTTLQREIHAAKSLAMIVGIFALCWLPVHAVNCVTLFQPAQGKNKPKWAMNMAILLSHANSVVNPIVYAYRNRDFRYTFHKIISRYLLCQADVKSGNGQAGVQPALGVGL
The assay is described as follows: Adenosine receptor TR-FRET binding assay (CA200645 displacement), A2b. As to conditions: 30 nM CA200645, CHO cell membranes, 2 hours at room temperature.

In assay [3] the target is T3, human Adenosine A1 receptor (Homo sapiens, UniProt P30542).
T3 sequence (P30542 1-326): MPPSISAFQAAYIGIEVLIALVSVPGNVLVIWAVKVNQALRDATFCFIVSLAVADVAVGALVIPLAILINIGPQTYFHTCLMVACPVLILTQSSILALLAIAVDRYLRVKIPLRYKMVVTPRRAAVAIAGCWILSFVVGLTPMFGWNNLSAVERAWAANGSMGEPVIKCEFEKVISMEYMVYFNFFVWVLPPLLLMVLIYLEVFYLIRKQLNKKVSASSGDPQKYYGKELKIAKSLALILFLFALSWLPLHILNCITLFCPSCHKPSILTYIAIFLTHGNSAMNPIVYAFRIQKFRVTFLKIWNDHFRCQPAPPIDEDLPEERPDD
As to the kind of experiment: Adenosine receptor TR-FRET binding assay (CA200645 displacement), A1. For orientation: TR-FRET usually uses a lanthanide donor and a delayed reading to cut background.
Method: All FRET binding experiments were conducted at room temperature in white 384-well plates, in assay binding buffer containing 1×LabMed (Cisbio, France), 100 μg/mL saponin, 1% DMSO and 0.02% pluronic acid. Binding of the fluorescently labelled Adenosine receptor antagonist XAC (CA200645, FRET acceptor) to terbium-labelled A1, A2a, A2b and A3 adenosine receptors (FRET donors) was detected by time-resolved FRET due to the close proximity of the donor and acceptor in a binding event. To investigate the ability of unlabelled test compounds to bind to Adenosine A1, A2a, A2b and A3 receptors, dose response curves were constructed that determined the ability of a range of concentrations to inhibit the binding of 30 nM CA200645 to the A2b receptor and 100 nM CA200645 to the A1, A2a, and A3 receptor.
Serial dilution (1:3 dilutions) of test compounds in neat DMSO and transfer of a 400 nL sample of test compound into the assay plate was carried out using the Mosquito (TTP Labtech, UK). The compound samples were incubated for 2 hours at room temperature with a fixed concentration of CA200645 defined for each receptor (see above) and CHO cell membranes containing the human Adenosine A1 (0.5 μg/well), A2a (0.3 μg/well), A2b (1 μg/well) or A3 (1 μg/well) receptor in 40 μL of assay buffer. Total and non-specific binding of CA200645 was determined in the absence and presence of 10 μM XAC, respectively. Following 2 hours incubation, the level of CA200645 binding was detected on a Pherastar FSX (BMG Labtech, Germany) using standard TR-FRET settings. The terbium donor was excited with three laser flashes at a wavelength of 337 nm, and donor and acceptor emission was detected at 620 nm and 665 nm wavelengths, respectively. FRET ratios were obtained by multiplying the acceptor/donor ratio value by 10,000. Specific binding was determined by subtracting the non-specific binding FRET ratio from the total binding FRET ratio. Compound IC50 curves were analysed using GraphPad Prism 7.0 (GraphPad, USA) and Ki affinity values were determined from the obtained IC50 values using the method of Cheng and Prusoff.

Assay [4] concerns the target T4, human Adenosine A3 receptor (Homo sapiens, UniProt P0DMS8).
T4 sequence (P0DMS8 1-318): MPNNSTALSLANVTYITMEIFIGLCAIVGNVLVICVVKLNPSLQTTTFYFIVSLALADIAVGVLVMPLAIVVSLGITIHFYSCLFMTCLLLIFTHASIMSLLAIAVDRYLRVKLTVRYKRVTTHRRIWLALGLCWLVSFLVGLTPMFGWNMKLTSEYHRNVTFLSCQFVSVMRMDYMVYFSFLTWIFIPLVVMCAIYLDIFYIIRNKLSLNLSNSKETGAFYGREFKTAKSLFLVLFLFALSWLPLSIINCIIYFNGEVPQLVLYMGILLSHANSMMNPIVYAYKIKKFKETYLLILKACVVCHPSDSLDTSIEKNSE
The assay is described as follows: Adenosine receptor TR-FRET binding assay (CA200645 displacement), A3.

T1 sequence (P29274 whole entry): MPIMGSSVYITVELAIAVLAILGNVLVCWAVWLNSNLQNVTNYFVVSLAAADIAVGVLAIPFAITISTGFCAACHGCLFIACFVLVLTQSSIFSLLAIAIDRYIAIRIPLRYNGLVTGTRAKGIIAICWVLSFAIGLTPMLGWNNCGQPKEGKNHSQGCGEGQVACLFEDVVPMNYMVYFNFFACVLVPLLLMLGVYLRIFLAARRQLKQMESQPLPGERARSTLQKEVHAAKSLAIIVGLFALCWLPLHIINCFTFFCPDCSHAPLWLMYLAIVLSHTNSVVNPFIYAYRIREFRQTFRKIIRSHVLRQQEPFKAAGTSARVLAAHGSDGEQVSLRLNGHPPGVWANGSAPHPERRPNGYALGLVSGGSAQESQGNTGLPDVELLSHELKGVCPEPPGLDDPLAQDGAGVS

In general, Ki refers to a dissociation constant, usually derived from enzyme kinetics or from competition with a known ligand. Lower therefore signals a stronger hold on the target. `Cc1cc(-c2c(-c3cccc(C#N)c3)nn3ccc(C(=O)NC4(C#N)CCNCC4)nc23)cc(Cl)n1` (single isomer, unassigned) [Example 7.16, 3-(2-Chloro-6-methyl-4-pyridyl)-2-(3-cyanophenyl)-N-(4-cyano-4-piperidyl)pyrazolo[1,5-a]pyrimidine-5-carboxamide]: the Ki in assay [1] was 17.7 nM; in assay [2] it was 54 nM; in assay [3] it was 418 nM; in assay [4], above 1000 nM.

As to `Cc1cc(-c2c(-c3cccc(C#N)c3)nn3ccc(C(=O)NC4(C(N)=O)CCNCC4)nc23)cc(Cl)n1` (single isomer, unassigned) [Example 7.17, N-(4-Carbamoyl-4-piperidyl)-3-(2-chloro-6-methyl-4-pyridyl)-2-(3-cyanophenyl)pyrazolo[1,5-a]pyrimidine-5-carboxamide], the Ki is 16.4 nM in assay [1], 68 nM in assay [2], 279 nM in assay [3] and above 1000 nM in assay [4].

Regarding `N#Cc1cccc(-c2nn3ccc(N)nc3c2-c2ccnnc2)c1` [Example 1.2], the Ki amounted to 13.9 nM in assay [1], 29 nM in assay [2], 20 nM in assay [3] and 646 nM in assay [4].

Turning to `CCn1nccc1-c1c(-c2cccc(C#N)c2)nn2ccc(N)nc12` [Example 1.3], the Ki in assay [1] was 74.8 nM; in assay [2], 16 nM; in assay [3], 197 nM; in assay [4], above 1000 nM.

As to `Cc1cc(-c2c(-c3cccc(C#N)c3)nn3ccc(N4CC5CCC(C4)N5C)nc23)cc(Cl)n1` [Example 2.2], the Ki is 0.5 nM in assay [1], 45 nM in assay [2], 5 nM in assay [3] and above 1000 nM in assay [4].

Take `CO[C@H]1CN(C)C[C@@H]1Nc1ccn2nc(-c3cccc(C#N)c3)c(-c3cc(C)nc(Cl)c3)c2n1` [Example 2.5]: the Ki in assay [1] was 0.9 nM; in assay [2] it was 1 nM; in assay [3], 24 nM; in assay [4] it was above 1000 nM.

In the case of `Cc1cc(-c2c(-c3cccc(C#N)c3)nn3ccc(N[C@@H]4CCOC4)nc23)cc(Cl)n1` [Example 2.6], the Ki is 1 nM in assay [1], 12 nM in assay [2], 87 nM in assay [3] and above 1000 nM in assay [4].

Take `Cc1cc(-c2c(-c3cccc(C#N)c3)nn3ccc(N4CCN(C)C(CO)C4)nc23)cc(Cl)n1` (stereo not shown) [Example 2.7]: the Ki was 1.3 nM in assay [1], 57 nM in assay [2], 76 nM in assay [3] and above 1000 nM in assay [4].

As to `Cc1cc(-c2c(-c3cccc(C#N)c3)nn3ccc(NCC(C)(C)C(=O)O)nc23)cc(Cl)n1` [Example 2.13], the Ki is 71.4 nM in assay [1], 1310 nM in assay [2], 1390 nM in assay [3] and above 1000 nM in assay [4].

Turning to `Cc1cc(-c2c(-c3cccc(C#N)c3)nn3ccc(NCC4CNC(=O)C4)nc23)cc(Cl)n1` (stereo not shown) [Example 2.14], the Ki in assay [1] was 1.5 nM; in assay [2] it was 8 nM; in assay [3] it was 29 nM; in assay [4] it was above 1000 nM.

For `Cc1cc(-c2c(-c3cccc(C#N)c3)nn3ccc(NC4CN5CCC4CC5)nc23)cc(Cl)n1` (stereo not shown) [Example 2.17], the Ki is 2.4 nM in assay [1], 6 nM in assay [2], 45 nM in assay [3] and above 1000 nM in assay [4].

As to `Cc1cc(-c2c(-c3cccc(C#N)c3)nn3ccc(NCCN4CCOCC4)nc23)cc(Cl)n1` [Example 2.19], the Ki in assay [1] is 2.8 nM; in assay [2] it was 21 nM; in assay [3] it was 32 nM; in assay [4] it was above 1000 nM.

For `Cc1cc(-c2c(-c3cccc(C#N)c3)nn3ccc(N[C@@H]4CC[C@@H]4O)nc23)cc(Cl)n1` [Example 2.22], the Ki was 6.2 nM in assay [1], 48 nM in assay [2], 109 nM in assay [3] and above 1000 nM in assay [4].

With `Cc1cc(-c2c(-c3cccc(C#N)c3)nn3ccc(N[C@H]4CCOC4)nc23)cc(Cl)n1` [Example 2.25], the Ki in assay [1] is 7.5 nM; in assay [2], 27 nM; in assay [3] it was 674 nM; in assay [4], above 1000 nM.

As for `Cc1cc(-c2c(-c3cccc(C#N)c3)nn3ccc(N4CCS(=N)(=O)CC4)nc23)cc(Cl)n1` [Example 2.26], the Ki is 7.7 nM in assay [1], 23 nM in assay [2], 366 nM in assay [3] and above 1000 nM in assay [4].

In the case of `Cc1cc(-c2c(-c3cccc(C#N)c3)nn3ccc(NC4CCS(=O)(=O)CC4)nc23)cc(Cl)n1` [Example 2.27], the Ki is 10.7 nM in assay [1], 43 nM in assay [2], 317 nM in assay [3] and above 1000 nM in assay [4].

For `Cc1cc(-c2c(-c3cccc(C#N)c3)nn3ccc(NCC(N)=O)nc23)cc(Cl)n1` [Example 2.28], the Ki in assay [1] was 11.6 nM; in assay [2] it was 2 nM; in assay [3] it was 81 nM; in assay [4], above 1000 nM.

In the case of `Cc1cc(-c2c(-c3cccc(C#N)c3)nn3ccc(N4CCNCC4)nc23)cc(Cl)n1` [Example 2.29], the Ki in assay [1] was 11.8 nM; in assay [2], 21 nM; in assay [3] it was 124 nM; in assay [4], above 1000 nM.

For `Cc1cc(-c2c(-c3cccc(C#N)c3)nn3ccc(NC(C)CN(C)C)nc23)cc(Cl)n1` (stereo not shown) [Example 2.30], the Ki in assay [1] is 15.8 nM; in assay [2], 55 nM; in assay [3], 450 nM; in assay [4], above 1000 nM.

In the case of `Cc1cc(-c2c(-c3cccc(C#N)c3)nn3ccc(O)nc23)cc(Cl)n1` [Example 2.31], the Ki in assay [1] is 15.8 nM; in assay [2], 70 nM; in assay [3], 551 nM; in assay [4], above 1000 nM.

Turning to `Cc1cc(-c2c(-c3cccc(C#N)c3)nn3ccc(NCc4ncc[nH]4)nc23)cc(Cl)n1` [Example 2.32], the Ki in assay [1] was 17.1 nM; in assay [2], 102 nM; in assay [3] it was 593 nM; in assay [4], above 1000 nM.

On to `Cc1cc(-c2c(-c3cccc(C#N)c3)nn3ccc(N4CCC4C(=O)O)nc23)cc(Cl)n1` (stereo not shown) [Example 2.34], for which the Ki is 22.5 nM in assay [1], 163 nM in assay [2], 234 nM in assay [3] and above 1000 nM in assay [4].

In the case of `Cc1cc(-c2c(-c3cccc(C#N)c3)nn3ccc(N4CC(C(=O)O)C4)nc23)cc(Cl)n1` [Example 2.35], the Ki amounted to 23.3 nM in assay [1], 259 nM in assay [2], 305 nM in assay [3] and 2530 nM in assay [4].

Consider `Cc1cc(-c2c(-c3cccc(C#N)c3)nn3ccc(N4CC[C@@H](C(=O)O)C4)nc23)cc(Cl)n1` [Example 2.36], for which the Ki in assay [1] is 25.1 nM; in assay [2] it was 430 nM; in assay [3] it was 179 nM; in assay [4], above 1000 nM.

With `Cc1cc(-c2c(-c3cccc(C#N)c3)nn3ccc(N4CCN(S(N)(=O)=O)CC4)nc23)cc(Cl)n1` [Example 2.37], the Ki in assay [1] was 26.5 nM; in assay [2], 9 nM; in assay [3], 1410 nM; in assay [4], above 1000 nM.

In the case of `Cc1cc(-c2c(-c3cccc(C#N)c3)nn3ccc(NC45CC(C(=O)O)(C4)C5)nc23)cc(Cl)n1` [Example 2.38], the Ki in assay [1] is 45.3 nM; in assay [2] it was 346 nM; in assay [3], 837 nM; in assay [4], above 1000 nM.

In the case of `Cc1cc(-c2c(-c3cccc(C#N)c3)nn3ccc(NC4CCN(CCO)CC4)nc23)cc(Cl)n1` [Example 2.39], the Ki in assay [1] is 1.4 nM; in assay [2], 2 nM; in assay [3], 241 nM; in assay [4] it was above 1000 nM.

Regarding `Cc1cc(-c2c(-c3cccc(C#N)c3)nn3ccc(N4CCN[C@@H](C(C)(C)O)C4)nc23)cc(Cl)n1` [Example 2.40], the Ki is 5.7 nM in assay [1], 23 nM in assay [2], 145 nM in assay [3] and above 1000 nM in assay [4].

With `Cc1cc(-c2c(-c3cccc(C#N)c3)nn3ccc(NS(N)(=O)=O)nc23)cc(Cl)n1` [Example 93, 3-(2-chloro-6-methyl-4-pyridyl)-2-(3-cyanophenyl)-5-(sulfamoylamino)pyrazolo[1,5-a]pyrimidine], the Ki in assay [1] was found to be 11.1 nM; in assay [2], 1 nM; in assay [3] it was 307 nM.
